Target: T1, APOL1 G1 (Homo sapiens, UniProt O14791, I384M/S342G)
T1 sequence (O14791 28-398 S342G/I384M): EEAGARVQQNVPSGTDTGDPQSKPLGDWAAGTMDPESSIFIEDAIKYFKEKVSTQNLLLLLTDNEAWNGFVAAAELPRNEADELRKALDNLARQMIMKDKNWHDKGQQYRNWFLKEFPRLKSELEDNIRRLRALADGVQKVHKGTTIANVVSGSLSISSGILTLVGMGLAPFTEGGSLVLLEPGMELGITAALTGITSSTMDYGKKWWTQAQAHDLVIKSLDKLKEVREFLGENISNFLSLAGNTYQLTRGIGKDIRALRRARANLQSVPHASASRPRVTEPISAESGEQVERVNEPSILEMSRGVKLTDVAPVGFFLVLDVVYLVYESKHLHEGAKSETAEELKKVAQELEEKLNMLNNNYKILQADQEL
Test: MultiTox-Fluor Multiplex Cytotoxicity Assay, tet-inducible APOL1 G1 T-REx-HEK293 cells
Format: cell-based
Set-up: expressed in transfected cells; host or cells: T-REx HEK293, clone G1 DC3.25 (pAAVS1-Puro-APOL1 G1)
Conditions: for IC90: HEK293, Multi-Tox Assay, APOL1 variant (G0/G1/G2) of the HEK293 cells not given, read-out: Multi-Tox Assay IC90; for Emax / Multi-Tox Assay Max Activity (%): Multi-Tox Assay, APOL1 variant not given; for Emax: read-out: Multi-Tox Assay Max Activity (%)
Procedure: The MultiTox-Fluor Multiplex Cytotoxicity Assay is a single-reagent-addition, homogeneous, fluorescence assay that measures the number of live and dead cells simultaneously in culture wells. The assay measures cell viability and cytotoxicity by detecting two distinct protease activities. The live-cell protease activity is restricted to intact viable cells and is measured using a fluorogenic, cell-permeant peptide glycyl-phenylalanylamino fluorocoumarin (GF-AFC) substrate. The substrate enters intact cells, where it is cleaved to generate a fluorescent signal proportional to the number of living cells. […] A second, cell-impermeant, fluorogenic peptide substrate (bis-AAF-R110 Substrate) is used to measure dead-cell protease that has been released from cells that have lost membrane integrity. A ratio of dead to live cells is used to normalize data.
Briefly, the tet-inducible transgenic APOL1 T-REx-HEK293 cell lines were incubated with 50 ng/mL tet to induce APOL1 in the presence of 3-(2-(4-fluorophenyl)-1H-indol-3-yl)-N-((3S,4R)-4-hydroxy-2-oxopyrrolidin-3-yl)propenamide at […], 0.0045, 0.0015, 0.0005 µM in duplicate for 24 hours in a humidified 37°C incubator. The MultiTox reagent was added to each well and placed back in the incubator for an additional 30 minutes. The plate was read on the EnVision plate reader. A ratio of dead to live cells was used to normalize, and data was imported, analyzed and fit using Genedata Screener (Basel, Switzerland) software. Data was normalized using percent of control, no tet (100% viability), and 50 ng/mL tet treated (0% viability),and fit using Smart Fit. The reagents, methods, and complete protocol for the MultiTox assay are described below. Table 42. Reagents Used in the Multi-Tox Assay
Human embryonic kidney (HEK293) cell lines containing a tet-inducible expression system (T-REx™; Invitrogen, Carlsbad, CA) and Adeno-associated virus site 1 pAA VS1-Puro-APOL1 G0 or pAAVS1-Puro-APOL1 G1 or pAAVS1-Puro-APOL1 G2 Clones G0 DC2.13, G1 DC3.25, and G2 DC4.44 were grown in a T-225 flask at ~90% confluency in cell growth media (DMEM, 10% Tet-free FBS, 2 mM L-glutamine, 100 Units/mL penicillin-streptomycin, 5 µg/mL blasticidin S HCl, 1 µg/mL puromycin dihydrochloride). Cells were washed with DPBS and then trypsinized to dissociate from the flask. Media was used to quench the trypsin, cells were then pelleted at 200g and resuspended in fresh cell assay media (DMEM, 2% Tet-free FBS, 2 mM L-glutamine, 100 Units/mL penicillin-streptomycin). Cells were counted and diluted to 1.17 x 10^6 cells/mL. 20 µL of cells (23,400/well) were dispensed to every well of a 384-well Poly-D-Lysine coated plate using the Multidrop dispenser. The plates were then incubated at room temperature for one hour.
Tetracycline is needed to induce APOL1 expression. 1 mg/mL tet stock in water was diluted to 250 ng/mL (5X) in cell assay media. 60 µL of cell assay media (no tet control) was dispensed in columns 1 and 24, and 60 µL of 5X tet was dispensed in 384-PP-round bottom plate in columns 2 to 23 with the Multidrop dispenser.
Assay ready plates from the Global Compound Archive were ordered using template 384_APOL1Cell_DR10n2_50uM_v3. Compounds were dispensed at 200 nL in DMSO. The final top concentration was 10 µM with a 10 point 3-fold dilution in duplicate in the MultiTox assay.
20 µL were transferred from the 5X tet plate to the ARP and mixed, then 5 µL of 5X tet and the compounds were transferred to the cell plate and mixed using the Bravo. The cell plate was placed in the humidified 37°C 5% CO2 incubator for 24 hours.
The MultiTox-Fluor Multiplex Cytotoxicity Assay was performed in accordance with the manufacturer's protocol. […]

SMILES	IC90	Emax	Multi-Tox Assay Max Activity (%)
C[C@H]1C[C@@]2(C[C@@H](c3c[nH]nn3)N1)OCCc1cc(Cl)sc12 (racemic) [Compound 72]	< 50 nM	99.7%	
Cc1cc([C@@H]2C[C@]3(C[C@H](C)N2)OCCc2cc(Cl)sc23)[nH]n1 (racemic) [Compound 73]	< 50 nM	99.8%	
C[C@H]1C[C@@]2(C[C@@H](c3cn4c(n3)COCC4)N1)OCCc1cc(Cl)sc12 (racemic) [Compound 74]	< 50 nM	99.2%	
C[C@H]1C[C@@]2(C[C@@H](c3cnc(N(C)C)nc3)N1)OCCc1cc(Cl)sc12 (racemic) [Compound 75]	< 50 nM	100%	
Cc1ccc([C@@H]2C[C@]3(C[C@H](C)N2)OCCc2cc(Cl)sc23)nc1 (racemic) [Compound 77]	< 50 nM	99%	
C[C@H]1C[C@@]2(C[C@@H](c3ccc(S(N)(=O)=O)cc3F)N1)OCCc1cc(Cl)sc12 (racemic) [Compound 78]	< 50 nM	99.7%	
C[C@H]1C[C@@]2(C[C@@H](c3cocn3)N1)OCCc1cc(Cl)sc12 (racemic) [Compound 79]	50 to 500 nM	99.7%	
C[C@H]1C[C@@]2(C[C@@H](c3ccc(=O)n(C)c3)N1)OCCc1cc(Cl)sc12 (racemic) [Compound 80]	< 50 nM	99.7%	
C[C@H]1C[C@@]2(C[C@@H](c3ccccc3)N1)OCCc1cc(Cl)sc12 (racemic) [Compound 81]	< 50 nM	99.7%	
Cc1ncc([C@@H]2C[C@]3(C[C@H](C)N2)OCCc2cc(Cl)sc23)cn1 (racemic) [Compound 82]	< 50 nM	99.7%	
C[C@H]1C[C@@]2(C[C@@H](c3ccccn3)N1)OCCc1cc(Cl)sc12 (racemic) [Compound 83]	< 50 nM	99%	
COc1ccc2[nH]c([C@@H]3C[C@]4(C[C@H](C)N3)OCCc3cc(Cl)sc34)cc2n1 (racemic) [Compound 84]	< 50 nM	99.8%	
C[C@H]1C[C@@]2(C[C@@H](c3c[nH]cn3)N1)OCCc1cc(Cl)sc12 (racemic) [Compound 85]	< 50 nM	99.3%	
C[C@H]1C[C@@]2(C[C@@H](c3cc(C4CC4)no3)N1)OCCc1cc(Cl)sc12 (racemic) [Compound 87]	< 50 nM	99.3%	
C[C@H]1C[C@@]2(C[C@@H](c3ccc(N(C)C)nc3)N1)OCCc1cc(Cl)sc12 (racemic) [Compound 89]	< 50 nM	99.3%	
COCCn1cc([C@@H]2C[C@]3(C[C@H](C)N2)OCCc2cc(Cl)sc23)cn1 (racemic) [Compound 90]	< 50 nM	100%	
C[C@H]1C[C@@]2(C[C@@H](c3cccnn3)N1)OCCc1cc(Cl)sc12 (racemic) [Compound 92]	< 50 nM	100%	
C[C@H]1C[C@@]2(C[C@@H](c3ccnnc3)N1)OCCc1cc(Cl)sc12 (racemic) [Compound 93]	< 50 nM	99.3%	
Cc1ncc([C@@H]2C[C@]3(C[C@H](C)N2)OCCc2cc(Cl)sc23)o1 (racemic) [Compound 94]	< 50 nM	100%	
C[C@H]1C[C@@]2(C[C@@H](c3cnc(NC(C)(C)CO)nc3)N1)OCCc1cc(Cl)sc12 (racemic) [Compound 95]	< 50 nM	99.8%	

SMILES	IC90	Emax	Multi-Tox Assay Max Activity (%)
C[C@H]1C[C@@]2(C[C@@H](c3ccon3)N1)OCCc1cc(Cl)sc12 (racemic) [Compound 96]	< 50 nM	99.8%	
Cc1cc([C@@H]2C[C@]3(C[C@H](C)N2)OCCc2cc(Cl)sc23)nn1C (racemic) [Compound 98]	< 50 nM		
COc1ccc([C@@H]2C[C@]3(C[C@H](C)N2)OCCc2cc(Cl)sc23)cc1O (racemic) [Compound 99]	< 50 nM		
C[C@H]1C[C@@]2(C[C@@H](c3cnn(C4CCOCC4)c3)N1)OCCc1cc(Cl)sc12 (racemic) [Compound 100]	< 50 nM		99.3%
C[C@H]1C[C@@]2(C[C@@H](c3cnccn3)N1)OCCc1cc(Cl)sc12 (racemic) [Compound 101]	< 50 nM		100.0%
CCOc1cc([C@@H]2C[C@]3(C[C@H](C)N2)OCCc2cc(Cl)sc23)ccc1O (racemic) [Compound 102]	< 50 nM		99.8%
C[C@H]1C[C@@]2(C[C@@H](c3cnn(CC(C)(CO)CO)c3)N1)OCCc1cc(Cl)sc12 (racemic) [Compound 103]	< 50 nM		99.6%
Cc1nc([C@@H]2C[C@]3(C[C@H](C)N2)OCCc2cc(Cl)sc23)co1 (racemic) [Compound 104]	50 to 500 nM		99.3%
COc1ccccc1-c1ncc([C@@H]2C[C@]3(C[C@H](C)N2)OCCc2cc(Cl)sc23)cn1 (racemic) [Compound 105]	50 to 500 nM		99.3%
COCc1cc([C@@H]2C[C@]3(C[C@H](C)N2)OCCc2cc(Cl)sc23)no1 (racemic) [Compound 106]	< 50 nM		99.7%
CCOc1ccc([C@@H]2C[C@]3(C[C@H](C)N2)OCCc2cc(Cl)sc23)cc1O (racemic) [Compound 107]	< 50 nM		99.7%
Cc1cc([C@@H]2C[C@]3(C[C@H](C)N2)OCCc2cc(Cl)sc23)ccc1O (racemic) [Compound 108]	50 to 500 nM		
C[C@H]1C[C@@]2(C[C@@H](c3cccc(C(N)=O)c3)N1)OCCc1cc(Cl)sc12 (racemic) [Compound 109]	50 to 500 nM		100.0%
COc1nccc([C@@H]2C[C@]3(C[C@H](C)N2)OCCc2cc(Cl)sc23)n1 (racemic) [Compound 110]	50 to 500 nM		99.2%
CCC(O)Cn1cc([C@@H]2C[C@]3(C[C@H](C)N2)OCCc2cc(Cl)sc23)nn1 (mixture of isomers) [Compound 111]	50 to 500 nM		99.3%
C[C@H]1C[C@@]2(C[C@@H](c3ccnc(O)c3)N1)OCCc1cc(Cl)sc12 (racemic) [Compound 112]	< 50 nM		100.0%
CC(=O)Nc1cccc([C@@H]2C[C@]3(C[C@H](C)N2)OCCc2cc(Cl)sc23)c1 (racemic) [Compound 113]	50 to 500 nM		100.0%
C[C@H]1C[C@@]2(C[C@@H](c3cccc(NS(C)(=O)=O)c3)N1)OCCc1cc(Cl)sc12 (racemic) [Compound 115]	50 to 500 nM		99.3%
Cc1nccc([C@@H]2C[C@]3(C[C@H](C)N2)OCCc2cc(Cl)sc23)n1 (racemic) [Compound 116]	50 to 500 nM		99.4%
